Source: US20010041682A1, “Dinucleotides useful for the treatment of lung disease” (priority 1995, published 2001)

What was measured:
airway epithelia = assay: Cl− secretion by cultured normal airway cells on permeable supports (Example 1); type: cell-based
Procedure: (§1) Normal airway cells were cultured on permeable supports and Cl^− secretion assayed as previously described in M. J. Stutts, et al., Am. J. Physiol. 267, C1442-C1451 (1994). Cl^− secretion was measured after administration of the dinucleotide A2P4 (Sigma Chemicals, St. Louis, Mo.). Amiloride was added to block airway epithelial sodium absorption.
Moreover, the administration of A2P4 had no effect on Cl^− secretion in airway epithelia pre-stimulated with UTP, which is known to activate non-CFTR Cl^− channels. […] Stimulation of this receptor is thus a therapeutic strategy for certain lung diseases, including cystic fibrosis.

[1] = tested on: Cultured airway epithelia; assay: Cl− secretion by cultured airway epithelia, UTP compared with U2P4 (Example 2); type: cell-based; settings: for Mean Cl− secretion Induced: 10^−4 M on mucosal surface, tissues pretreated with amiloride (10^−4 M); for Effectiveness (efficacy) on Cl− secretion, UTP compared with U2P4: 10^−4 M, the highest concentration tested, amiloride (10^−4 M) pretreated
Procedure: as §1
Studies were carried out according to the method described in Example 1 to compare the effectiveness (efficacy) of UTP and U2P4. Cultured airway epithelia were exposed to a concentration of from 10^−9 M to […] of either UTP or U2P4 in 6 ml of solution circulating over the mucosal surface. The tissues were pretreated with amiloride (10^−4 M) to block Na^+ absorption. Under these conditions, the current generated by the tissues is due to Cl^− secretion. UTP and U2P4 induced a similar pattern of Cl^− secretion. At 10^−4 M, the highest concentration tested, UTP and U2P4 were equieffective (equiefficacious).

Question: `Nc1ncnc2c1ncn2[C@@H]1O[C@H](COP(=O)(O)OP(=O)(O)OP(=O)(O)OP(=O)(O)OC[C@H]2O[C@@H](n3cnc4c(N)ncnc43)[C@H](O)[C@@H]2O)[C@@H](O)[C@H]1O` [A2P4] was tested. Which “Effect on Cl− secretion” value (airway epithelia; airway epithelia pre-stimulated with UTP) did it give?
Answer: no effect

Question: And the “Effect on Cl− secretion” value (airway epithelia; exposed to the basolateral surface of the airway epithelial preparation, amiloride added)?
Answer: little effect

Question: What about the “Effect on Cl− secretion” value (airway epithelia; luminal surface, airway epithelia treated with forskolin, amiloride added) of the same molecule?
Answer: stimulated additional Cl^− secretion

Question: What does the source list for `O=c1ccn([C@@H]2O[C@H](COP(=O)(O)OP(=O)(O)OP(=O)(O)OP(=O)(O)OC[C@H]3O[C@@H](n4ccc(=O)[nH]c4=O)[C@H](O)[C@@H]3O)[C@@H](O)[C@H]2O)c(=O)[nH]1` [U2P4, UppppU]?
Answer: Mean Cl− secretion Induced [1]: 43.8 μA/cm^2; Effectiveness (efficacy) on Cl− secretion, UTP compared with U2P4 [1]: equieffective

Question: How did the “Mean Cl− secretion Induced” value [1] turn out when `O=c1ccn([C@@H]2O[C@H](COP(=O)(O)OP(=O)(O)OP(=O)(O)O)[C@@H](O)[C@H]2O)c(=O)[nH]1` [UTP, reference compound] was run?
Answer: 45.3 μA/cm^2

Question: What about the “Effectiveness (efficacy) on Cl− secretion, UTP compared with U2P4” value [1] of the same molecule?
Answer: equieffective
